# Assay results taken from patent publication US20070270350A1, “Methods and Compositions for the Prevention and Treatment of Inflammatory Diseases or Conditions” (MUSC FOUNDATION FOR RESEARCH DEVELOPMENT, priority 2003, published 2007).
# Assays:
# [1] = system: iNOS; test: LPS-induced iNOS expression and iNOS promoter activity in primary astrocytes (AICAR); assay type: cell-based, rat
# Description: Immunoblot Analysis: Cells were harvested in ice-cold lysis buffer (50 mM Tris-HCl, pH 7.4, containing 50 mM NaCl, 1 mM EDTA, 0.5 mM EGTA, 10% glycerol and protease inhibitor cocktail) and protein was estimated using Bradford reagent (Bio-Rad, USA). Fifty microgram of total protein/lane was separated by SDS-PAGE and blotted to nitrocellulose (Amersham Pharmacia Biotech). Blots were blocked for 1 h in 5% nonfat dry milk-TBS-0.1% Tween 20 and incubated overnight with primary antibody (1:1000) in 5% BSA-TBS-0.1% Tween 20 at 4° C. This was followed by incubation of 1 h with appropriate secondary peroxidase conjugated antibody (1:10,000, Sigma). Immunoreactivity was detected using the enhanced chemiluminescence detection method according to the manufacturer's instructions (Amersham Pharmacia Biotech) and subsequent exposure of the membrane to X-ray film. Antisense experiments: To decrease the levels of endogenous AMPK, astrocytes were pretreated for 48 h with 25 μm (of phosphothiorated antisense (AS) oligonucleotide ([NT]) directly against both the ? α1 and α2 ? subunits of AMPK (Culmsee et al., 2001) ? ? ? missense (MS) oligonucleotide ([NT]) was used in control cultures. Oligonucleotides were transfected with OligofectamineTM reagent as per manufacturer's instructions. Northern blot, gene array analysis and RT-PCR for cytokines expression: Total RNA was extracted with Trizol (Gibco) according to the manufacturer's protocol. Northern blot for iNOS was performed with 15 μg of RNA per reaction as described previously (Pahan et al., 1997). β-actin was used as control for RNA loading. Gene expression array for inflammatory cytokines (TNFα, IL-1β, IL-6 and IFN-γ) was used according to the manufacturer's protocol (Superarray). Signal quantitation was determined using imaging densitomter (Bio-Rad Lab, Hercules, Calif.). For RT-PCR, RNA was isolated from treated rat brain cerebral cortex by extracting in Trizol as above. cDNA was prepared from 5 μg of total RNA using poly dT as a primer and Moloney murine leukemia virus reverse transcriptase (Promega) as per manufacturer's instructions. 2 μl of cDNA was used to amplify the following products [given as product name, expected size, and forward (F) and reverse (R) primers used]: iNOS, 730 bp. ([NT]-1β, 623 bp. ([…]-α, 473 bp. ([…], 528 bp. […] Transcriptional assays: Primary astrocytes or microglial cell line (BV2) were transiently transfected with NF- ? B-or iNOS-luciferase reporter gene with ? -galactosidase in the presence or absence of dominant negative AMPKα2 or HA-IKK ? by lipofectamine-2000 (astrocytes) and lipofectamine-Plus (BV2, Invitrogen) according to the manufacturer instructions. pcDNA3 was used to normalize all groups to equal amounts of DNA. Luciferase activity was determined using a luciferase kit (Promega).
# [2] = system: AMPK; test: Phosphorylation of AMPK and ACC in primary astrocytes (immunoblot); assay type: cell-based, rat
# Description: Immunoblot Analysis: Cells were harvested in ice-cold lysis buffer (50 mM Tris-HCl, pH 7.4, containing 50 mM NaCl, 1 mM EDTA, 0.5 mM EGTA, 10% glycerol and protease inhibitor cocktail) and protein was estimated using Bradford reagent (Bio-Rad, USA). Fifty microgram of total protein/lane was separated by SDS-PAGE and blotted to nitrocellulose (Amersham Pharmacia Biotech). Blots were blocked for 1 h in 5% nonfat dry milk-TBS-0.1% Tween 20 and incubated overnight with primary antibody (1:1000) in 5% BSA-TBS-0.1% Tween 20 at 4° C. This was followed by incubation of 1 h with appropriate secondary peroxidase conjugated antibody (1:10,000, Sigma). Immunoreactivity was detected using the enhanced chemiluminescence detection method according to the manufacturer's instructions (Amersham Pharmacia Biotech) and subsequent exposure of the membrane to X-ray film.
# Antisense experiments: To decrease the levels of endogenous AMPK, astrocytes were pretreated for 48 h with 25 μm (of phosphothiorated antisense (AS) oligonucleotide (5′ […]-3′) directly against both the ? α1 and α2 ? subunits of AMPK (Culmsee et al., 2001) ? ? ? missense (MS) oligonucleotide (5′ […]-3′) was used in control cultures. Oligonucleotides were transfected with Oligofectamine™ reagent as per manufacturer's instructions.
# AMPK and IKKα/ ? assays: AMPK activity was assayed in primary rat astrocytes as described (Kim et al., 2001). […]
# [3] = system: rat model of focal cerebral ischemia (MCAO); test: Focal cerebral ischemia model (20 min MCAO, reperfusion); assay type: in vivo; conditions: GSH up to 150 mg/kg body weight after the onset of ischemia
# Description: Animals. A total of 60 male Sprague-Dawley rats (Charles River Laboratories, Wilmington, Mass.) weighing 250-300 g were used in this study. All animals received humane care in compliance with the Medical University of South Carolina's guidance and the National Research Council's criteria for humane care as outlined in ‘Guide for the Care and Use of Laboratory Animals’. Body temperature was monitored by a rectal probe and maintained at 37±0.5° C. by a homeothermic blanket control unit (Harvard Apparatus, Holliston, Mass.). Cranial temperature and mean arterial blood pressure were measured by HSE Plugsys TAM-D and TCAM (Harvard Apparatus) respectively.
# Experimental design and administration of drugs. All animal procedures were approved by the Medical University of South Carolina Animal Review Committee and were in accordance with the guidelines for animal use published by the National Institute of Health. […]
# Measurement of physiological variables. The physiological variables were measured before, during MCA occlusion, at reperfusion and 30 min after reperfusion. The rectal temperature was monitored and maintained at about 37 to 37.6° C. […]
# Evaluation of ischemic infarct and neurological score. […] The infarct area, outlined in white, was acquired by image-analysis software (Photoshop 4.0 Adobe System) and measured by NIH image software. […]
# [4] = X-ALD patients; cited from earlier work
molecule,measurement,setting,value
"5′ CGCCCGTCGTCGTGCTTCTGC-3′ (phosphorothioate, further chemistry not given here) [antisense (AS), phosphothiorated antisense oligonucleotide against the α1 and α2 subunits of AMPK]",LPS mediated iNOS protein expression,"[1]; AMPK antisense 25 μM, then LPS 1 μg/ml",significantly induced
same,catalytic subunit AMPKα1 level (immunoblot),"[2]; 25 μM antisense, 48 h",decreased
Nc1ncnc2c1c(I)cn2[C@@H]1O[C@H](CO)[C@@H](O)[C@H]1O [5-iodotubercidin],effect on inhibition induced by AICAR on iNOS protein expression,"[1]; adenosine kinase inhibitor with AICAR and LPS, 24 h",reverse the inhibition
same,effect on AICAR induced phosphorylation of AMPK and ACC,"[2]; adenosine kinase inhibitor 0.1 μM, 30 min before AICAR 1 mM",blocked
"N[C@@H](CCC(=O)N[C@@H](CS)C(=O)NCC(=O)O)C(=O)O [GSH, gamma-glutamylcysteinylglycine]",protective effect in ischemia,[3],no protective effect
CCCCCCCC/C=C\CCCCCCCC(=O)OCC(COC(=O)CCCCCCC/C=C\CCCCCCCC)OC(=O)CCCCCCC/C=C\CCCCCCCC [trioleate],reduction of VLCFA,[4],50%
